What follows are molecules tested against T1, Kv1.3 potassium channel (Homo sapiens, UniProt P22001) (assay: Kv1.3 potassium channel blocker activity, automated whole-cell patch clamp (Patchliner) in CHO-K1 cells stably expressing Kv1.3). Settings: not given.
T1 construct: expressed in transfected cells
T1 sequence (P22001 whole entry): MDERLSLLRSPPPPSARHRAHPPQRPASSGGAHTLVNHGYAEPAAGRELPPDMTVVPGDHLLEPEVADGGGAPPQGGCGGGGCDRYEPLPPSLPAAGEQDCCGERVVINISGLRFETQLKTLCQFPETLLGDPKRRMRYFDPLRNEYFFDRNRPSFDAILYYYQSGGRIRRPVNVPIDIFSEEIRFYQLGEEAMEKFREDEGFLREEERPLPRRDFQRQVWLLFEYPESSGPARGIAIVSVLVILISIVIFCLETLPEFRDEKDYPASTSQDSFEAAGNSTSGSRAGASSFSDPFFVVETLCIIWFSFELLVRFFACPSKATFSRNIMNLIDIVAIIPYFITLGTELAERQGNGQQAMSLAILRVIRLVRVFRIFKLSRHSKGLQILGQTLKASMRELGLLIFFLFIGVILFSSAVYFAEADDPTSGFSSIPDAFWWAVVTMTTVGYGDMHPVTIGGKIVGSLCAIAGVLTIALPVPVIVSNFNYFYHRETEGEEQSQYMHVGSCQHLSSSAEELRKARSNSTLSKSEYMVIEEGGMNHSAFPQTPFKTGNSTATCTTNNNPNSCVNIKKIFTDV
Assay type: cell-based
Procedure: Example 82. Evaluation of Kv1.3 potassium channel blocker activities
This assay is used to evaluate the disclosed compounds' activities as Kv1.3 potassium channel blockers.
CHO-K1 cells stably expressing Kv1.3 were grown in DMEM containing 10% heat-inactivated FBS, 1 mM sodium pyruvate, 2 mM L-glutamine, and G418 (500 μg/ml).
All compounds were dissolved in DMSO at 30 mM.
The currents were evoked by applying 100 ms depolarizing pulses from −90 mV (holding potential) to +40 mV were applied with 0.1 Hz frequency. […] 10-second breaks were used between pulse trains (see Table A below).
Data were sampled at 10 kHz without filtering. Passive leak currents were subtracted online using a P/4 procedure (HEKA Elektronik Dr. Schulze GmbH). […] Total compound incubation time before the next pulse train was not longer than 10 seconds. Peak current inhibition was observed during compound equilibration.
With `Oc1cc(Cl)c(Cl)cc1[C@@H]1C[C@H]2CC[C@@H](C1)N2` (single isomer, unassigned; isomer 1) [Compound 15, 2-[8-azabicyclo[3.2.1]octan-3-yl]-4,5-dichlorophenol isomer 1] the IC50 was less than 10 µM.
For `Oc1cc(Cl)c(Cl)cc1[C@H]1C[C@H]2CC[C@@H](C1)N2` (single isomer, unassigned; isomer 2) [Compound 11, 2-[8-azabicyclo[3.2.1]octan-3-yl]-4,5-dichlorophenol isomer 2], the IC50 was less than 10 µM.
`Oc1cc(Cl)c(Cl)cc1C1=CC2CCC(C1)N2` (centres unmarked) [Compound 17, 2-[8-azabicyclo[3.2.1]oct-2-en-3-yl]-4,5-dichlorophenol] showed an IC50 of less than 10 µM.
Molecule `N#CC1(c2cc(Cl)c(Cl)cc2O)CCNCC1` [Compound 13, 4-(4,5-dichloro-2-hydroxyphenyl)piperidine-4-carbonitrile] has an IC50 of less than 10 µM.

Same assay, conditions: CHO-K1 cells stably expressing Kv1.3; patch clamp, current inhibition; read-out: Kv1.3 IC50
`O=C1NCCC12CC(c1c(O)ccc(Cl)c1Cl)CCN2` (centres unmarked) [Compound 87, 9-(2,3-dichloro-6-hydroxyphenyl)-2,6-diazaspiro[4.5]decan-1-one] showed an IC50 of less than 10 µM.
`Oc1ccc(F)c(Cl)c1C1CCNCC1` [Compound 68, 3-chloro-4-fluoro-2-(piperidin-4-yl)phenol] showed an IC50 of less than 10 µM.
`N[C@H]1CNCC[C@H]1c1cc(Cl)c(Cl)cc1O` (relative stereo) [Compound 51, (3R,4S)-rel-2-(3-aminopiperidin-4-yl)-4,5-dichlorophenol] gave an IC50 of less than 10 µM.
For `O=C([C@H]1C[C@@H](c2c(O)ccc(Cl)c2Cl)CCN1)N1CCOCC1` (relative stereo) [Compound 80, (2R,4S)-rel-3,4-dichloro-2-[2-(morpholine-4-carbonyl)piperidin-4-yl]phenol], the IC50 was less than 10 µM.
In the case of `CC1(C(N)=O)CC(c2c(O)ccc(Cl)c2Cl)CCN1` (centres unmarked) [Compound 83, 4-(2,3-dichloro-6-hydroxyphenyl)-2-methylpiperidine-2-carboxamide], the IC50 is reported as less than 10 µM.
Work on `COC(=O)[C@@H]1CNC[C@H]1c1cc(Cl)c(Cl)cc1O` (relative stereo) [Compound 53, (3R,4S)-rel-methyl 4-(4,5-dichloro-2-hydroxyphenyl)pyrrolidine-3-carboxylate] yielded an IC50 of less than 10 µM.
`O=C(NC1CNC1)[C@H]1CN[C@H](c2c(O)ccc(Cl)c2Cl)C1` (single isomer, unassigned) [Compound 124] showed an IC50 of less than 1 µM.
In the case of `NC(=O)[C@@H]1CNCC[C@@H]1c1cc(Cl)c(Cl)cc1O` (single isomer, unassigned) [Compound 56], the IC50 is reported as less than 10 µM.
With `Oc1cc(Cl)c(Cl)cc1N1CCCNCC1` [Compound 37, 4,5-dichloro-2-(1,4-diazepan-1-yl)phenol] the IC50 was less than 10 µM.
`NC(=O)[C@H]1CN(c2c(O)cc(Cl)c(Cl)c2Cl)CCN1` [Compound 96, (2R)-4-(2,3,4-trichloro-6-hydroxyphenyl)piperazine-2-carboxamide] showed an IC50 of less than 1 µM.
For `NC1(CO)CCN(c2cc(Cl)c(Cl)cc2O)CC1` [Compound 33, 2-[4-amino-4-(hydroxymethyl)piperidin-1-yl]-4,5-dichlorophenol], the IC50 was less than 10 µM.
In the case of `Oc1cc(C(F)(F)F)c(Cl)cc1C1CCNCC1` [Compound 29, 4-chloro-2-(piperidin-4-yl)-5-(trifluoromethyl)phenol], the IC50 is reported as less than 10 µM.
`Oc1cc(Cl)c(Cl)cc1C1=CCNC1` [Compound 20, 4,5-dichloro-2-(2,5-dihydro-1H-pyrrol-3-yl)phenol] gave an IC50 of less than 10 µM.
With `Oc1cc(Cl)c(Cl)cc1C1=CCCNC1` [Compound 19, 4,5-dichloro-2-(1,2,3,6-tetrahydropyridin-5-yl)phenol] the IC50 was less than 10 µM.
Work on `O=C(NC1CNC1)[C@@H]1CC[C@H](c2c(O)ccc(Cl)c2Cl)N1` (single isomer, unassigned) [Compound 119] yielded an IC50 of less than 10 µM.
`NC[C@H]1CNCC[C@H]1c1cc(Cl)c(Cl)cc1O` (relative stereo) [Compound 47, (3R,4S)-rel-2-[3-(aminomethyl)piperidin-4-yl]-4,5-dichlorophenol] showed an IC50 of less than 30 µM.
Work on `NC(=O)C1CNC[C@H]1c1cc(Cl)c(Cl)cc1O` (stereo in doubt) [Compound 64, (3R,4R)-rel-4-(4,5-dichloro-2-hydroxyphenyl)pyrrolidine-3-carboxamide] yielded an IC50 of less than 10 µM.
Molecule `Oc1cc(Cl)c(Cl)cc1C1(O)CCNCC1` (single isomer, unassigned) [Compound 59, 4-(4,5-dichloro-2-hydroxyphenyl)piperidin-4-ol] has an IC50 of less than 10 µM.
`O=C(NC1CNC1)[C@@H]1CC[C@@H](c2c(O)ccc(Cl)c2Cl)N1` (single isomer, unassigned) [Compound 120] showed an IC50 of less than 10 µM.
`CC1(c2cc(Cl)c(Cl)cc2O)CCNCC1` [Compound 1, 4,5-dichloro-2-(4-methylpiperidin-4-yl)phenol] showed an IC50 of less than 10 µM.
In the case of `CC(=O)N1CCC(c2cc(Cl)c(Cl)cc2O)CC1` [Compound 10, 1-[4-(4,5-dichloro-2-hydroxyphenyl)piperidin-1-yl]ethan-1-one], the IC50 is reported as less than 10 µM.
`O=S(=O)(C1CCNC1)N1CCC(c2c(O)cc(Cl)c(Cl)c2Cl)CC1` (centres unmarked) [Compound 95, 3,4,5-trichloro-2-[1-(pyrrolidine-3-sulfonyl)piperidin-4-yl]phenol] showed an IC50 of less than 10 µM.
Work on `Oc1cc(Cl)c(Cl)cc1[C@@H]1CCNC[C@H]1O` (relative stereo) [Compound 7, (3R,4R)-rel-4-(4,5-dichloro-2-hydroxyphenyl)piperidin-3-ol] yielded an IC50 of less than 10 µM.
`OC[C@@H]1C[C@H](c2cc(Cl)c(Cl)cc2O)CCN1` (single isomer, unassigned) [Compound 35] showed an IC50 of less than 10 µM.
In the case of `Oc1cccc(Cl)c1C1CCNCC1` [Compound 66, 3-chloro-2-(piperidin-4-yl)phenol], the IC50 is reported as less than 10 µM.
Work on `NC(=O)[C@H]1CNCC[C@H]1c1cc(Cl)c(Cl)cc1O` (single isomer, unassigned) [Compound 58] yielded an IC50 of less than 1 µM.
For `OCC1(c2cc(Cl)c(Cl)cc2O)CCNCC1` [Compound 26, 4,5-dichloro-2-[4-(hydroxymethyl)piperidin-4-yl]phenol], the IC50 was less than 10 µM.
With `N[C@@H]1CNCC[C@H]1c1cc(Cl)c(Cl)cc1O` (relative stereo) [Compound 49, (3R,4R)-rel-2-(3-aminopiperidin-4-yl)-4,5-dichlorophenol] the IC50 was less than 10 µM.
For `O=C([C@H]1C[C@H](c2c(O)ccc(Cl)c2Cl)CCN1)N1CCOCC1` (relative stereo) [Compound 76, (2R,4R)-rel-3,4-dichloro-2-[2-(morpholine-4-carbonyl)piperidin-4-yl]phenol], the IC50 was less than 10 µM.
Work on `CN(C)C(=O)[C@H]1C[C@@H](c2c(O)ccc(Cl)c2Cl)CCN1` (relative stereo) [Compound 77, (2R,4S)-rel-4-(2,3-dichloro-6-hydroxyphenyl)-N,N-dimethylpiperidine-2-carboxamide] yielded an IC50 of less than 10 µM.
`Oc1ccc(C2CC2)c(Cl)c1C1CCNCC1` [Compound 69, 3-chloro-4-cyclopropyl-2-(piperidin-4-yl)phenol] was tested, and the IC50 was less than 30 µM.
With `NC(=O)[C@@H]1CN(c2c(O)ccc(Cl)c2Cl)CCN1` [Compound 92] the IC50 was less than 10 µM.
`NC[C@@H]1CNCC[C@H]1c1cc(Cl)c(Cl)cc1O` (relative stereo) [Compound 48, (3R,4R)-rel-2-[3-(aminomethyl)piperidin-4-yl]-4,5-dichlorophenol] gave an IC50 of less than 10 µM.
In the case of `Oc1cc(Cl)c(Cl)cc1C1CCNCC1n1ccnn1` (centres unmarked) [Compound 62, 4,5-dichloro-2-[3-(1H-1,2,3-triazol-1-yl)piperidin-4-yl]phenol], the IC50 is reported as less than 10 µM.
Molecule `NC(=O)[C@H]1CNCC[C@@H]1c1cc(Cl)c(Cl)cc1O` (relative stereo) [Compound 50, (3R,4S)-rel-4-(4,5-dichloro-2-hydroxyphenyl)piperidine-3-carboxamide] has an IC50 of less than 10 µM.
In the case of `OC[C@H]1C[C@@H](c2cc(Cl)c(Cl)cc2O)CCN1` (single isomer, unassigned) [Compound 34], the IC50 is reported as less than 10 µM.
`NC(=O)[C@H]1CN(c2c(O)ccc(Cl)c2Cl)CCN1` [Compound 90, (2R)-4-(2,3-dichloro-6-hydroxyphenyl)piperazine-2-carboxamide] gave an IC50 of less than 10 µM.
In the case of `Oc1ccc(Br)c(Cl)c1C1CCNCC1` [Compound 81, 4-bromo-3-chloro-2-(piperidin-4-yl)phenol], the IC50 is reported as less than 1 µM.
For `Oc1cc(Cl)c(Cl)c(Cl)c1C1=CCNCC1` [Compound 46, 3,4,5-trichloro-2-(1,2,3,6-tetrahydropyridin-4-yl)phenol], the IC50 was less than 10 µM.
Molecule `CN(C)C(=O)[C@H]1C[C@H](c2c(O)ccc(Cl)c2Cl)CCN1` (relative stereo) [Compound 82, (2R,4R)-rel-4-(2,3-dichloro-6-hydroxyphenyl)-N,N-dimethylpiperidine-2-carboxamide] has an IC50 of less than 10 µM.
For `Nc1nnc([C@H]2C[C@@H](c3c(O)ccc(Cl)c3Cl)CCN2)o1` (relative stereo) [Compound 103, 2-((2R,4S)-rel-2-(5-amino-1,3,4-oxadiazol-2-yl)piperidin-4-yl)-3,4-dichlorophenol], the IC50 was less than 10 µM.
For `Oc1cc(C(F)F)c(Cl)cc1C1CCNCC1` [Compound 41, 4-chloro-5-(difluoromethyl)-2-(piperidin-4-yl)phenol], the IC50 was less than 10 µM.
In the case of `NC(=O)[C@@H]1CNC[C@H]1c1cc(Cl)c(Cl)cc1O` (relative stereo) [Compound 52, (3R,4S)-rel-4-(4,5-dichloro-2-hydroxyphenyl)pyrrolidine-3-carboxamide], the IC50 is reported as less than 10 µM.
Molecule `O=C(O)C1CC(c2c(O)ccc(Cl)c2Cl)CCN1` (centres unmarked) [Compound 84, 4-(2,3-dichloro-6-hydroxyphenyl)piperidine-2-carboxylic acid] has an IC50 of less than 10 µM.
`Oc1cc(Cl)c(Cl)cc1C1CNC1` [Compound 22, 2-(azetidin-3-yl)-4,5-dichlorophenol] was tested, and the IC50 was less than 10 µM.
In the case of `O=C(NC1CNC1)[C@H]1CCC(c2c(O)ccc(Cl)c2Cl)N1` (single isomer, unassigned) [Compound 117], the IC50 is reported as less than 30 µM.
